In ChEMBL document CHEMBL6127139, “Lysine-Targeted Covalent Inhibitors of PI3Kδ Synthesis and Screening by In Situ Interaction Upgradation” (J Med Chem, 2024):
The source made the active and inactive calls. The rule behind the calls is not given here.

Key:
[1] = target: Phosphatidylinositol 4,5-bisphosphate 3-kinase catalytic subunit alpha isoform (Homo sapiens, UniProt P42336); assay: Inhibition of recombinant PI3Kalpha (unknown origin) using PIP2:3PS as substrate preincubated for 20 mins followed by ATP addition and measured after 1 hrs by ADP-Glo reagent based assay
Phosphatidylinositol 4,5-bisphosphate 3-kinase catalytic subunit alpha isoform, sequence (P42336 whole entry, canonical isoform): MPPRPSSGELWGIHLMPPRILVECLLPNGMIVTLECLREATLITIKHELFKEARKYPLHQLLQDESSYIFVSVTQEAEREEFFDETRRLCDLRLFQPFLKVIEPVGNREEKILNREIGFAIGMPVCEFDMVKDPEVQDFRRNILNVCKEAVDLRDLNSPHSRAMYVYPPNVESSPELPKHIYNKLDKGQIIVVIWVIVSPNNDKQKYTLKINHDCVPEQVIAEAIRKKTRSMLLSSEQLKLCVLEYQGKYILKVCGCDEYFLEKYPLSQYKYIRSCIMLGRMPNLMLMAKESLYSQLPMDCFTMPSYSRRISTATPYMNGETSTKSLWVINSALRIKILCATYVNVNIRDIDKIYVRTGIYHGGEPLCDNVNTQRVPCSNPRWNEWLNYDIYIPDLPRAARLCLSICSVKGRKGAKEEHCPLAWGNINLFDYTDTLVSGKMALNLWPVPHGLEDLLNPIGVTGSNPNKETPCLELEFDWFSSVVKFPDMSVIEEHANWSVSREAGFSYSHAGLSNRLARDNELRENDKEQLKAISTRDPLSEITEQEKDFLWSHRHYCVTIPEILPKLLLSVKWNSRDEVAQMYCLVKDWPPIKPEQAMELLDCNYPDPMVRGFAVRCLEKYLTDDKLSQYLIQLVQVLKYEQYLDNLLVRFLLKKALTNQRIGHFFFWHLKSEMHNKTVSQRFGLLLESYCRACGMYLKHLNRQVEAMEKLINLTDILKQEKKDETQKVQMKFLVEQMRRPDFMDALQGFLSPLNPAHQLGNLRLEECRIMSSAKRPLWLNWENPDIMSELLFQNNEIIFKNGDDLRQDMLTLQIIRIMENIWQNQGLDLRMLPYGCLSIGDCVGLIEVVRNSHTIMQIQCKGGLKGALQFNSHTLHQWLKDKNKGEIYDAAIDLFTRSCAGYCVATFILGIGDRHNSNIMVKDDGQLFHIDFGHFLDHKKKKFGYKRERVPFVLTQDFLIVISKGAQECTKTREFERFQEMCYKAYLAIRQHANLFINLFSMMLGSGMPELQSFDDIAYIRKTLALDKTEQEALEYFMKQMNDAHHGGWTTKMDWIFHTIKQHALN

[2] = target: Phosphatidylinositol 4,5-bisphosphate 3-kinase catalytic subunit gamma isoform (Homo sapiens, UniProt P48736); assay: Inhibition of recombinant PI3Kgamma (unknown origin) using PIP2:3PS as substrate preincubated for 20 mins followed by ATP addition and measured after 1 hrs by ADP-Glo reagent based assay
Phosphatidylinositol 4,5-bisphosphate 3-kinase catalytic subunit gamma isoform, sequence (P48736 whole entry, canonical isoform): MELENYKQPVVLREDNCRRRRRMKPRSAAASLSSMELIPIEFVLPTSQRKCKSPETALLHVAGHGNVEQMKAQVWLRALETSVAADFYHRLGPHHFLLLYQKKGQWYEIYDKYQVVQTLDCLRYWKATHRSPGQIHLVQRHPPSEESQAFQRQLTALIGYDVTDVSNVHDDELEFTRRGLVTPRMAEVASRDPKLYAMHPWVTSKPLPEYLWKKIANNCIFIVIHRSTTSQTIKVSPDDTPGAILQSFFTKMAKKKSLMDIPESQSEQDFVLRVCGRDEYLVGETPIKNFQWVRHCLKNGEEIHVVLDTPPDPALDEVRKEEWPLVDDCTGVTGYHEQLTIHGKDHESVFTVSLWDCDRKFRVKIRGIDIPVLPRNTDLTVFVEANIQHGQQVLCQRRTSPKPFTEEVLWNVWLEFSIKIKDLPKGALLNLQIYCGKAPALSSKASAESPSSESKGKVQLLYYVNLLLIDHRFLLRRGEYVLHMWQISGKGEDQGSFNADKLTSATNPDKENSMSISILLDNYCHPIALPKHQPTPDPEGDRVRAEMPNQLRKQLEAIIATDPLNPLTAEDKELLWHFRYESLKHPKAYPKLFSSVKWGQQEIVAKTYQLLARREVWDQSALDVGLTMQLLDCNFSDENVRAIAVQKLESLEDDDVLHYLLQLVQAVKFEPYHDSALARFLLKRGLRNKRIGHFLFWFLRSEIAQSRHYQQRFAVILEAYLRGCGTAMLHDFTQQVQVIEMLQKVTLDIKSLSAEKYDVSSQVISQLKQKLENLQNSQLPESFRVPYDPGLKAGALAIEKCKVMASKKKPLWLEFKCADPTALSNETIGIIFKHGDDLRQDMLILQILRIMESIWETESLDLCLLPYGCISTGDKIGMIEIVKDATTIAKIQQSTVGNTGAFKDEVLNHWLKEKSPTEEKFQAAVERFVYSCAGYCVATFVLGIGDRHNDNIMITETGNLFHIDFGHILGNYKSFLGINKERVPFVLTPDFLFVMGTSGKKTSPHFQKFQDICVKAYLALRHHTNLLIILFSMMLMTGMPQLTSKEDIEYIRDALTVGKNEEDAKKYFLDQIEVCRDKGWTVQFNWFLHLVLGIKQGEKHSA

[3] = target: T1, Phosphatidylinositol 4,5-bisphosphate 3-kinase catalytic subunit delta isoform (Homo sapiens) (UniProt O00329); assay: Potency index, ratio of idelalisib IC50 to test compound IC50 for inhibition of recombinant PI3Kdelta (unknown origin) using PIP2:3PS as substrate preincubated for 20 mins followed by ATP addition and measured after 1 hrs by ADP-Glo reagent based assay; conditions: time 80.0 min
T1 sequence (whole entry): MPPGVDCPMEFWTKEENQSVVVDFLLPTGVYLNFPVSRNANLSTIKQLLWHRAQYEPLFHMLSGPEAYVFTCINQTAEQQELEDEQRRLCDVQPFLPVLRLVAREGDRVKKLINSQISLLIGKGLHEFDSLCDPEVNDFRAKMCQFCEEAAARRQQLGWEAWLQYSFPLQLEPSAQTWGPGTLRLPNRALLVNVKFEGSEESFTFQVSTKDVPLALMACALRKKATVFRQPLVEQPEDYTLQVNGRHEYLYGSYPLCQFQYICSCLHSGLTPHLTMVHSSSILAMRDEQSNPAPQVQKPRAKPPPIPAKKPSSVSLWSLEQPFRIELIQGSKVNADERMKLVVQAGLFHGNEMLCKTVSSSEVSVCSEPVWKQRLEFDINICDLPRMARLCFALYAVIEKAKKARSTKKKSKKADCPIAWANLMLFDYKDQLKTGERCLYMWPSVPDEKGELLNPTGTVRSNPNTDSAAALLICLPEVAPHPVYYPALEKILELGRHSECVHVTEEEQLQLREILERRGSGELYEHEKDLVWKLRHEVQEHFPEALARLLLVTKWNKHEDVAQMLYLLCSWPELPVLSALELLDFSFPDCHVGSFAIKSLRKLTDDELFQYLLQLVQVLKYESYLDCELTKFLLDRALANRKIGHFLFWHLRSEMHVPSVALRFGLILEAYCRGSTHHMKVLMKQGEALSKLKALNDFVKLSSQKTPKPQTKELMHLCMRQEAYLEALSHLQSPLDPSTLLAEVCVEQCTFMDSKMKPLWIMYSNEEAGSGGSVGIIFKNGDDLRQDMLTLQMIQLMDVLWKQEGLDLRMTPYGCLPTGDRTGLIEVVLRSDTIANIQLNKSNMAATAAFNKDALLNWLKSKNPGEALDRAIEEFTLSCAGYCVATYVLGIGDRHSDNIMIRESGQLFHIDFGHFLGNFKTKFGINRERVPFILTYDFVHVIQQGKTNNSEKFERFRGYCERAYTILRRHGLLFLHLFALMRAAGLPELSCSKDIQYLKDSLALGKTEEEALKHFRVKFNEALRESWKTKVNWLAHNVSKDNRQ

SU-DHL-6 [4] = assay: Inhibition of AKT phosphorylation in human SU-DHL-6 cells preincubated for 12 hrs followed by compound washout and measured after 24 hrs by Western blot analysis; assay type: cell-based
SU-DHL-6 [5] = assay: Antiproliferative activity against human SU-DHL-6 cells assessed as inhibition of cell viability preincubated for 12 hrs followed by compound washout and measured after 60 hrs by MTT assay; assay type: functional, cell-based
[6] = Selectivity ratio of GI50 for human HCT-116 cells to GI50 for PI3Kdelta overexpressing human SU-DHL-6; assay type: functional
[7] = target: Phosphatidylinositol 4,5-bisphosphate 3-kinase catalytic subunit beta isoform (Homo sapiens, UniProt P42338); assay: Inhibition of recombinant PI3Kbeta (unknown origin) using PIP2:3PS as substrate preincubated for 20 mins followed by ATP addition and measured after 1 hrs by ADP-Glo reagent based assay
Phosphatidylinositol 4,5-bisphosphate 3-kinase catalytic subunit beta isoform, sequence (P42338 whole entry, canonical isoform): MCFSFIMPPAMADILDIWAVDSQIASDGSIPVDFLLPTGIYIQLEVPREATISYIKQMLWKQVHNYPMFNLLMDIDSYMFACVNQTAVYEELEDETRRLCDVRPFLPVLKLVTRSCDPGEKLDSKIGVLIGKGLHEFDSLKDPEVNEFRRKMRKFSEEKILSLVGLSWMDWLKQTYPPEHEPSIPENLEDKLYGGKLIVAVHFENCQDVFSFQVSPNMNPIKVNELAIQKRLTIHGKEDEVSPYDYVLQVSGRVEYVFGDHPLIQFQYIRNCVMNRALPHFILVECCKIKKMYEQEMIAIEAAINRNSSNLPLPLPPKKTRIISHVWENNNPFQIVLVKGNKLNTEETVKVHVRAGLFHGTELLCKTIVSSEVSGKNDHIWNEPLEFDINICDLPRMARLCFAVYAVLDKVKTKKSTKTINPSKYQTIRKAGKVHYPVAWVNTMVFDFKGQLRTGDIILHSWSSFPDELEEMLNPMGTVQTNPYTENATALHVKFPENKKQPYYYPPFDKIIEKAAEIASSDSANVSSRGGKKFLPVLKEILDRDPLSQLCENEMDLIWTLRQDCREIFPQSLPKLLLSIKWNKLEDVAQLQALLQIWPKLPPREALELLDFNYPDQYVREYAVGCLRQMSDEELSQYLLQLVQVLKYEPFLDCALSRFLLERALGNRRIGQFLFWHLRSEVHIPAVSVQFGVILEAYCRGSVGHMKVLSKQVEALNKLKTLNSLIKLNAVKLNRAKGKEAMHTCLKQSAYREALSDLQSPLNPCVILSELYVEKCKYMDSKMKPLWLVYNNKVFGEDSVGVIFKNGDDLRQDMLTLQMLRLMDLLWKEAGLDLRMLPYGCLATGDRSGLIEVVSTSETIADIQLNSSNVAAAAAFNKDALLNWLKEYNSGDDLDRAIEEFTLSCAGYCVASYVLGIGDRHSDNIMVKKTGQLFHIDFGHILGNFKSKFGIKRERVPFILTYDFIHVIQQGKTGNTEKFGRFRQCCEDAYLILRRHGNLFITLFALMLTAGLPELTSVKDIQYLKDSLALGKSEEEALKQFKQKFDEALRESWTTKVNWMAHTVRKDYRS

Raji = assay: Growth inhibition of human Raji cells incubated for 72 hrs by MTT assay; assay type: functional
SU-DHL-6 [8] = assay: Inhibition of AKT phosphorylation in human SU-DHL-6 cells incubated for 24 hrs by Western blot analysis; assay type: cell-based; conditions: dose 10-1000 nM
SU-DHL-6 [9] = assay: Inhibition of AKT phosphorylation in human SU-DHL-6 cells preincubated for 12 hrs followed by compound washout and measured upto 72 hrs by Western blot analysis; assay type: cell-based
[10] = Selectivity index, ratio of IC50 for inhibition of recombinant PI3Kgamma (unknown origin) using PIP2:3PS as substrate to IC50 for inhibition of recombinant PI3Kdelta (unknown origin) using PIP2:3PS as substrate
[11] = target: T2, Phosphatidylinositol 4,5-bisphosphate 3-kinase catalytic subunit delta isoform (Homo sapiens, UniProt O00329); assay: Inhibition of recombinant PI3Kdelta (unknown origin) using PIP2:3PS as substrate preincubated for 20 mins followed by ATP addition and measured after 1 hrs by ADP-Glo reagent based assay
T2 sequence (O00329 whole entry): T1 sequence (whole entry)

[12] = Growth inhibition of PI3Kdelta-overexpressing human Pfeiffer cells incubated for 72 hrs by MTT assay; assay type: functional
[13] = Stability of compound in PBS at pH 7.4 incubated for 24 hrs at 37 degreeC by HPLC analysis; assay type: physicochemical; conditions: buffer, pH 7.4, 24 h
[14] = Growth inhibition of PI3Kdelta-overexpressing human SU-DHL-6 cells incubated for 72 hrs by MTT assay; assay type: functional
[15] = Chemical reactivity of the compound with N-Boc-Lysine assessed as half-life at 1 uM by HPLC analysis; assay type: physicochemical; conditions: incubation with N-Boc-Lysine
[16] = Selectivity index, ratio of IC50 for inhibition of recombinant PI3Kalpha (unknown origin) using PIP2:3PS as substrate to IC50 for inhibition of recombinant PI3Kdelta (unknown origin) using PIP2:3PS as substrate
[17] = Stability of compound in water/acetonitrile solution incubated for 24 hrs by HPLC analysis; assay type: physicochemical; conditions: buffer
HCT-116 = assay: Growth inhibition of human HCT-116 cells incubated for 72 hrs by MTT assay; assay type: functional
MCF7 = assay: Growth inhibition of human MCF7 cells incubated for 72 hrs by MTT assay; assay type: functional
[18] = Selectivity index, ratio of IC50 for inhibition of recombinant PI3Kbeta (unknown origin) using PIP2:3PS as substrate to IC50 for inhibition of recombinant PI3Kdelta (unknown origin) using PIP2:3PS as substrate
SU-DHL-6 [19] = assay: Potency index, ratio of idelalisib GI50 to test compound GI50 for growth inhibition of PI3Kdelta-overexpressing human SU-DHL-6 cells incubated for 72 hrs by MTT assay; assay type: functional
[20] = target: T1, Phosphatidylinositol 4,5-bisphosphate 3-kinase catalytic subunit delta isoform (Homo sapiens); assay: Covalent inhibition of PI3Kdelta (unknown origin) using PIP2:3PS as substrate assessed as second order rate constant (Kinact/Ki ratio) incubated upto 180 mins in presence of ATP by ADP-Glo reagent based assay
SU-DHL-6 [21] = assay: Induction of apoptosis in human SU-DHL-6 cells assessed as viable cells at 1 uM incubated for 48 hrs by Annexin V-FITC/PI staining based flow cytometric analysis (reference value: 89.81 %); assay type: functional; conditions: read-out: Activity
SU-DHL-6 [22] = assay: Induction of apoptosis in human SU-DHL-6 cells assessed as late apoptotic cells at 1 uM incubated for 48 hrs by Annexin V-FITC/PI staining based flow cytometric analysis (reference value: 4.12 %); assay type: functional
SU-DHL-6 [23] = assay: Induction of apoptosis in human SU-DHL-6 cells assessed as late apoptotic cells at 10 uM incubated for 48 hrs by Annexin V-FITC/PI staining based flow cytometric analysis (reference value: 4.12 %); assay type: functional
SU-DHL-6 [24] = assay: Induction of apoptosis in human SU-DHL-6 cells assessed as early apoptotic cells at 10 uM incubated for 48 hrs by Annexin V-FITC/PI staining based flow cytometric analysis (reference value: 5.02 %); assay type: functional
SU-DHL-6 [25] = assay: Induction of apoptosis in human SU-DHL-6 cells assessed as necrotic cells at 10 uM incubated for 48 hrs by Annexin V-FITC/PI staining based flow cytometric analysis (reference value: 1.05 %); assay type: functional
SU-DHL-6 [26] = assay: Induction of apoptosis in human SU-DHL-6 cells assessed as early apoptotic cells at 1 uM incubated for 48 hrs by Annexin V-FITC/PI staining based flow cytometric analysis (reference value: 5.02 %); assay type: functional
SU-DHL-6 [27] = assay: Induction of apoptosis in human SU-DHL-6 cells assessed as viable cells at 10 uM incubated for 48 hrs by Annexin V-FITC/PI staining based flow cytometric analysis (reference value: 89.81 %); assay type: functional; conditions: read-out: Activity
SU-DHL-6 [28] = assay: Antitumor activity against human SU-DHL-6 cells xenografted in male nude mouse assessed as tumor growth inhibition at 5 mg/kg/day, po administered for 14 days relative to control; assay type: functional; conditions: SU-DHL-6, 336 h, time 14 day, read-out: TGI
SU-DHL-6 [29] = assay: Induction of apoptosis in human SU-DHL-6 cells assessed as necrotic cells at 1 uM incubated for 48 hrs by Annexin V-FITC/PI staining based flow cytometric analysis (reference value: 1.05 %); assay type: functional

| Structure (SMILES) | IC50 [1] [nM] | IC50 [2] [nM] | inhibition (SU-DHL-6 [4]) | Activity (SU-DHL-6 [5]) | IC50 [7] [nM] | GI50 (Raji) [nM] | inhibition (SU-DHL-6 [9]) | Ratio IC50 [10] | IC50 [11] [nM] | GI50 [12] [nM] | GI50 [14] [nM] | half-life at 1 µM [15] [h] | Ratio IC50 [16] | GI50 (HCT-116) [nM] | GI50 (MCF7) [nM] | Ratio IC50 [18] | further results |
| --- | --- | --- | --- | --- | --- | --- | --- | --- | --- | --- | --- | --- | --- | --- | --- | --- | --- |
| COc1ncc(-c2ccc3ncnc(N[C@H]4CCN(C(=O)C5CCOCC5)C4)c3c2)cc1C(=O)Oc1ccccc1 | 66 | 656 | Active | Active | 155 | 8200 | Active | > 1000 | 0.53 | 195 | 3 | 2.4 | 124 | 1900 | > 10000 | 292 | Ratio IC50 [3]: 10; RatioGI50 [6]: 2500; inhibition (SU-DHL-6 [8]): Dose-Dependent Effect; Stability [13]: Stable; Stability [17]: Stable; RatioGI50 (SU-DHL-6 [19]): ~10 |
| COc1ncc(-c2ccc3ncnc(N[C@H]4CCN(C(=O)C5CCOCC5)C4)c3n2)cc1C(=O)Oc1ccc(F)cc1 | 14.1 | 63.7 | Active | Active | 241 | 6610 | Active | 14 | 4.45 | 97 | 4 | 0.917 | 3 | 2140 | 6330 |  |  |
| COc1ncc(-c2ccc3ncnc(N[C@H]4CCN(C(=O)C5CCOCC5)C4)c3c2)cc1C#N |  |  |  |  |  | > 10000 |  | 64 |  |  | 4550 |  | 9 |  |  | 97 |  |
| COc1ncc(-c2ccc3ncnc(N[C@H]4CCN(C(=O)C5CCOCC5)C4)c3c2)cc1C(=O)Oc1ccc(F)cc1 | 25.6 | 208 | Active | Active | 30 | 7590 | Active | 92 | 2.24 | 130 | 3 | 1.12 | 11 | 1520 | > 10000 | 13 |  |
| COc1ncc(-c2cc(-c3ncc(CN4CCN(C(C)C)CC4)o3)c3cn[nH]c3c2)cc1C(=O)Oc1ccc(F)cc1 |  |  |  |  |  |  |  |  |  |  |  |  |  |  |  |  | Ratio [20]: 3.75 10^4/M/s |
| CC[C@H](Nc1ncnc2[nH]cnc12)c1nc2cccc(F)c2c(=O)n1-c1ccccc1 [IDELALISIB] |  |  | inactive | inactive |  | > 10000 | inactive |  |  | 8330 | 200 |  |  | > 10000 | > 10000 |  | viability at 1 µM (SU-DHL-6 [21]): 87%; Activity (SU-DHL-6 [22]): 3.46%; Activity (SU-DHL-6 [23]): 6.75%; Activity (SU-DHL-6 [24]): 13.29%; Activity (SU-DHL-6 [25]): 0.6%; Activity (SU-DHL-6 [26]): 6.76%; viability at 10 µM (SU-DHL-6 [27]): 79.4%; inhibition in vivo at 5 mg/kg/day (SU-DHL-6 [28]): 50%; Activity (SU-DHL-6 [29]): 0.8% |
